Our source for the inhibition and IC50 values is US11266642B2, “Small molecule inhibitors of HLA-DR3 binding for treating autoimmune thyroiditis” (ICAHN SCHOOL OF MEDICINE AT MOUNT SINAI, priority 2015, dated 2022).

The test system of test [1] is Interferon (IFN gamma). As to the kind of experiment: Cytokine production by immunized mice splenocytes (Milliplex/Luminex). It is filed as cell-based. The note with it: Mus musculus, Splenocyte, 1 μM compound, 48 hours. How it is done: Immunized mice splenocytes were incubated with 1 μM compound Ia together with human thryroglobulin (40 μg/mL) or Tg.2098 (20 μg/mL) to assess the inhibition of cytokines production by compound Ia. […] Milliplex mouse cytokines/chemokine magnetic panel (Catalog no. MCYTOMAG-70K, EMD Millipore Corporation, Billerica, Mass.) was used to assay the cytokines. Splenocytes were plated at 2×10^6 cells per well in 500 uL of medium (RPMI/10% FBS). Supernatants were collected 48 hours after stimulation with hTg or peptides and stored at −80° C. until the assay was performed. To begin the assay, the 96-well plate supplied in the kit was washed with the wash buffer supplied and the plate was shaken for 10 min at room temperature. Standards and quality controls were added, followed by the samples. The pre-mixed beads (IFN gamma, IL-2, IL-4, IL-10) were sonicated and vortexed, and then added to the wells. After shaking the plate overnight at 4° C., the plate was washed twice with wash buffer. Detection antibodies were added for 1 h at room temperature, and Streptavidin-Phycoerythrin was added for 30 min at room temperature. The plate was washed twice and sheath fluid was added to resuspend the beads for 5 min before reading in Luminex 200 with xPONENT software (Luminex, Austin, Tex.) […]

Test [2] has as its target T1, HLA-DRβ1-Arg74 (Homo sapiens, UniProt P01903+P01911, A100K/A102G/A103R/A169T/F55Y/I96L/K41T/L162R/M171V/P40S/Q125H/Q178H/Q39Y/R42S/S66N/T106N/W38E/Y61H).
T1 construct: extracellular portion of the DRB1*0301 β chain fused to the coiled coil region; coiled coil region of the basic leucine zipper domain of JunB; TEV protease cutting site (internal)
In words: In Vitro Arg74 Blocking Test (DELFIA immunoassay, APO peptide binding). As to conditions: 10 μM biotinylated APO; 48 h at 37° C.; serial dilution 0.2 to 0.0125 mM; read-out: approximate IC50, inhibition of APO binding to HLA-DRβ1-Arg74. An excerpt: HLA-DRβ1-Arg74 protein (containing arginine at position 74 on the β chain) was produced using the baculovirus system. We designed 2 constructs for both the α and β chains of HLA-DR. The β-chain construct contained the extracellular portion of the DRB1*0301 β chain fused to the coiled coil region of the basic Leucine zipper domain of JunB, and the α chain construct contained the extracellular portion of the DR α chain fused to the coiled coil region to the basic Leucine zipper domain of Fos. A TEV protease cutting site was introduced in each chain to allow removal of the dimerization motif. The JunB and Fos dimerization motifs allowed the protein to dimerize and form the final HLA-DRβ1-Arg74 protein. […]
Test compounds were dissolved in 100% DMSO and tested for their ability to bind to the HLA-DRβ1-Arg74 pocket and block it from binding the peptide using an immunoassay we developed for this purpose, which will be referred to as the “In Vitro Arg74 Blocking Test”. […] Time-resolved fluorescence was measured using the BMG reader (BMG Labtech, Cary, N.C.). […] Percent inhibition was calculated by the following formula: 100−100×[HLA-DRβ1-Arg74-APO-small molecule/HLA-DRβ1-Arg74-APO (no small molecule)])
To gauge the potency of the small molecules we determined the percent inhibition at decreasing concentrations of test molecules. […]

Like-named read-outs stand apart in the source and are kept apart here.

T1 sequence (P01903 26-216 limits assumed, other chains not shown): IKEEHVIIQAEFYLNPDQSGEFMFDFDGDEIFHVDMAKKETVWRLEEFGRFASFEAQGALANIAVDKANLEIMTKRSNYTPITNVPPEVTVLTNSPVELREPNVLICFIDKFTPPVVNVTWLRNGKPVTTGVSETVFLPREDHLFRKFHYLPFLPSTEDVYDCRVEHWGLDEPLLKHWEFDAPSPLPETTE

Take `COc1ccc2cc1Oc1ccc(cc1)C[C@H]1c3c(cc4c(c3Oc3cc5c(cc3OC)CCN(C)[C@@H]5C2)OCO4)CCN1C` [Compound Ia, cepharanthine]: the inhibition (usually the change of the read-out against control, counted positive when it falls) at 1 µM is 48.8% in test [1] (Tg.2098 20 μg/mL, p<0.0001, read-out: Interferon inhibition, Tg.2098 stimulation) and 38.7% in test [1] (hTg 40 μg/mL, p=0.002, read-out: Interferon inhibition, hTg stimulation). In addition, the IC50 (usually the midpoint of a concentration-inhibition curve) in test [2] was approximately 80 µM.
